EP0716856B1, “Therapeutic uses of 2',5'-oligoadenylate derivatives” (Temple University of the Commonwealth System of Higher …, priority 1988, dated 1989)

Biological target: T1, HIV-1 reverse transcriptase (Human immunodeficiency virus type 1 group M subtype B, UniProt P04585)
T1 construct: used as a source of HIV-1 reverse transcriptase; endogenous in cells; host or cells: Virions pelleted from conditioned supernatant of H9 cells infected with HTLV-IIIB, lysed with Triton X-100
Assay: Inhibition of HIV-1 reverse transcriptase activity in vitro (viral lysate, poly(A).(dT)15 template-primer, [3H]dTTP incorporation)
Type: biochemical
Settings: Concentration 400 micromolar; 37°C, 1 h; read-out: Percent Inhibition
Experimental: Reverse Transcriptase Assays. Virus was concentrated from cell-free ([…]) conditioned H9/HTLV-IIIB culture supernatants by centrifugation at 18,000 r.p.m. for 4 h at 20°C in a Beckman JA-20 rotor. A viral pellet obtained from 50 ml of conditioned culture fluid was dissolved in 0.5 mL of a solution containing 17 mM Tris-HCl (pH 7.8), 3mM dithiothreitol (DTT), 55 mM KC1, 0.32% w/v Triton X-100, and 33% glycerol. This viral lysate was stored at -20°C and was used as a source of HIV-1 reverse transcriptase. Reverse transcriptase reactions were performed in 100 µL reaction volumes containing 40 mM Tris-HC1 (pH 7.8), 4 mM DTT, 50 mM KCl, 10 mM MgCl2, 0.0325% w/v Triton X-100, 3 micromolar [^33H]dTTP (80 Ci/mmol,NEN) and poly (A).(dT)15 (2.5 microgram/mL) template-primer after the addition of 10 microliter enzyme. Inhibitors were added at various concentrations after adjusting water volumes so that reaction volumes remained constant. Reactions were incubated at 37°C for 1 h in a humidified environment and terminated by adding 2 mL of 10% cold trichloroacetic acid. Precipitate was collected on 0.45 µm cellulose-acetate Millipore filters which were then dissolved in 10 mL of 3a70B aqueous scintillant and the counts per minute quantitated using a Beckman LS 6800 liquid scintillation spectrometer.

Structure (SMILES)	inhibition at 400 µM [%]
Nc1ncnc2c1ncn2[C@@H]1O[C@H](CO)[C@@H](O)[C@H]1O [(adenosine) A, adenosine]	0
Nc1ncnc2c1ncn2[C@@H]1O[C@H](CO)C[C@H]1O [cordycepin (C), 3'-deoxyadenosine]	0
